Test system: 439559-082-T-J2-PDC complex spheroid growth
Assay: Anticancer human tumor 439559-082-T-J2-PDC patient-derived colon adenocarcinoma cell line growth inhibition [Asc]
Conditions: for IC50: curve of first compound; for viability, T/C: stronger effect = lower value
In short: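 Tumor cells were grown as complex spheroids with human endothelial cells (HUVEC) and human mesenchymal stem cells as stroma. Agents were tested alone and in combination, in half-log steps down from the clinical Cmax, or from 10 microM where Cmax was unknown.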
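Also: spheroids exposed to agents for 7 days starting day 3 after seeding.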
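For viability, T/C in this document: percent of DMSO vehicle control viability with 100% = vehicle.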

NC(=O)C(=Cn1cnc(-c2cc(C(F)(F)F)cc(C(F)(F)F)c2)n1)c1cncnc1 + CCN1C(C(=O)NC23CCC(C(=O)O)(CC2)CC3)C(c2cccc(Cl)c2F)C2(C(=O)Nc3cc(Cl)ccc32)C12CCCCC2 gave an IC50 (second compound 0.03 µM) greater than 300 nM, an IC50 (second compound 0.0949 µM) greater than 300 nM and an IC50 (second compound 0.3 µM) greater than 300 nM. It also gave an IC50 (second compound 0.949 µM) greater than 300 nM, an IC50 (second compound 3 µM) greater than 300 nM and a viability, T/C (second compound 0.03 µM, first compound 0.000949 µM) of 96.7%. The viability, T/C (second compound 0.03 µM, first compound 0.003 µM) was 103%, the viability, T/C (second compound 0.03 µM, first compound 0.00949 µM) was 103% and the viability, T/C (second compound 0.03 µM, first compound 0.03 µM) was 90.9%. The viability, T/C (second compound 0.03 µM, first compound 0.0949 µM) was 95.2%, the viability, T/C (second compound 0.03 µM, first compound 0.3 µM) was 81.9% and the viability, T/C (second compound 0.0949 µM, first compound 0.000949 µM) was 98.5%. The viability, T/C (second compound 0.0949 µM, first compound 0.003 µM) was 113%, the viability, T/C (second compound 0.0949 µM, first compound 0.00949 µM) was 107% and the viability, T/C (second compound 0.0949 µM, first compound 0.03 µM) was 83.2%. The viability, T/C (second compound 0.0949 µM, first compound 0.0949 µM) was 89.4%, the viability, T/C (second compound 0.0949 µM, first compound 0.3 µM) was 83.3% and the viability, T/C (second compound 0.3 µM, first compound 0.000949 µM) was 106%. The viability, T/C (second compound 0.3 µM, first compound 0.003 µM) was 102%, the viability, T/C (second compound 0.3 µM, first compound 0.00949 µM) was 105% and the viability, T/C (second compound 0.3 µM, first compound 0.03 µM) was 88.2%. For the same compound, the viability, T/C (second compound 0.3 µM, first compound 0.0949 µM) was 93.2%, the viability, T/C (second compound 0.3 µM, first compound 0.3 µM) was 80.8% and the viability, T/C (second compound 0.949 µM, first compound 0.000949 µM) was 105%. The viability, T/C (second compound 0.949 µM, first compound 0.003 µM) was 104%, the viability, T/C (second compound 0.949 µM, first compound 0.00949 µM) was 110% and the viability, T/C (second compound 0.949 µM, first compound 0.03 µM) was 90.3%. It also gave a viability, T/C (second compound 0.949 µM, first compound 0.0949 µM) of 88.6%, a viability, T/C (second compound 0.949 µM, first compound 0.3 µM) of 86.8% and a viability, T/C (second compound 3 µM, first compound 0.000949 µM) of 87.3%. The viability, T/C (second compound 3 µM, first compound 0.003 µM) was 93.2%, the viability, T/C (second compound 3 µM, first compound 0.00949 µM) was 96.6% and the viability, T/C (second compound 3 µM, first compound 0.03 µM) was 87.5%. For the same compound, the viability, T/C (second compound 3 µM, first compound 0.0949 µM) was 75% and the viability, T/C (second compound 3 µM, first compound 0.3 µM) was 67.7%.

— PubChem BioAssay AID1963423 (Molecular Pharmacology Branch, DTP, NCI, 2024)
